Measurements: the NIST ThermoML archive (doi:10.1021/je800439e)
Several values for one entry are separate records, joined by “and”; a condition that tells them apart may be missing. Identical values can stand only once. ± gives the expanded uncertainty stated by the source.

Experiments:
[1] = 101 kPa, Liquid
[2] = xn = mol fraction of the nth substance listed; details: 101 kPa, Liquid

Cc1c(C)c2c(c(C)c1O)CCC(C)(CCCC(C)CCCC(C)CCCC(C)C)O2 (racemic) [dl-α-tocopherol]
[1]
Details	viscosity
278.15 K	37128 ± 10000 mPa·s
284.15 K	15242 ± 3600 mPa·s
290.15 K	6380 ± 1300 mPa·s and 6380.1 ± 1300 mPa·s
296.15 K	3017.5 ± 510 mPa·s
302.15 K	1531 ± 220 mPa·s
308.15 K	814.81 ± 94 mPa·s
314.15 K	454.58 ± 42 mPa·s
320.15 K	283.56 ± 21 mPa·s
325.15 K	187.51 ± 11 mPa·s
330.15 K	129.2 ± 5.7 mPa·s
335.15 K	92.65 ± 3 mPa·s
340.15 K	67.32 ± 1.6 mPa·s
345.15 K	49.98 ± 1.1 mPa·s
350.15 K	37.4 ± 0.85 mPa·s

Cc1cc(C)cc(C)c1 [1,3,5-trimethylbenzene]
[1]
Details	viscosity [mPa·s]
278.15 K	0.85 ± 0.03
284.15 K	0.8 ± 0.03
290.15 K	0.75 ± 0.03
296.15 K	0.63 ± 0.03
302.15 K	0.57 ± 0.03
308.15 K	0.53 ± 0.03
314.15 K	0.49 ± 0.03
320.15 K	0.46 ± 0.03
325.15 K	0.44 ± 0.02
330.15 K	0.41 ± 0.02
335.15 K	0.4 ± 0.02
340.15 K	0.39 ± 0.02
345.15 K	0.35 ± 0.02
350.15 K	0.34 ± 0.02

Cc1cc(C)cc(C)c1 [1,3,5-trimethylbenzene] + Cc1c(C)c2c(c(C)c1O)CCC(C)(CCCC(C)CCCC(C)CCCC(C)C)O2
[2], x2 = 0
Details	viscosity [mPa·s]
278.15 K	0.85 ± 0.02
284.15 K	0.8 ± 0.02
290.15 K	0.75 ± 0.02
296.15 K	0.63 ± 0.02
302.15 K	0.57 ± 0.02
308.15 K	0.53 ± 0.01
314.15 K	0.49 ± 0.01
320.15 K	0.46 ± 0.01
325.15 K	0.44 ± 0.01
330.15 K	0.41 ± 0.01
335.15 K	0.4 ± 0.01
340.15 K	0.39 ± 0.01
345.15 K	0.35 ± 0.01
350.15 K	0.34 ± 0.01

CCCCCc1ccc(C2CCC(CCC)CC2)cc1 (stereo not given) [1-pentyl-4-(4-propylcyclohexyl)-benzene]
[1]
Details	viscosity [mPa·s]
278.15 K	27.74 ± 0.39
284.15 K	21.48 ± 0.31
290.15 K	16.95 ± 0.24
296.15 K	13.5 ± 0.19
302.15 K	11.09 ± 0.15
308.15 K	9.21 ± 0.13
314.15 K	7.64 ± 0.1
320.15 K	6.58 ± 0.09
325.15 K	6.01 ± 0.08
330.15 K	5.19 ± 0.07
335.15 K	4.57 ± 0.06
340.15 K	4.13 ± 0.06
345.15 K	3.68 ± 0.05
350.15 K	3.29 ± 0.05

CCCCCc1ccc(C2CCC(CCC)CC2)cc1 (stereo not given) [1-pentyl-4-(4-propylcyclohexyl)-benzene] + Cc1c(C)c2c(c(C)c1O)CCC(C)(CCCC(C)CCCC(C)CCCC(C)C)O2
viscosity [mPa·s], [2]
Details	x2 = 0	x2 = 0.2058	x2 = 0.4023	x2 = 0.6026	x2 = 0.8018
278.15 K	27.74 ± 0.39	75.95 ± 4	384.28 ± 34	1270.6 ± 180	7471.9 ± 1600
284.15 K	21.48 ± 0.31	53.48 ± 0.82	231.6 ± 15	794.38 ± 90	3488.2 ± 610
290.15 K	16.95 ± 0.24	38.25 ± 0.65	145.52 ± 6.8	441.94 ± 40	1669.9 ± 240
296.15 K	13.5 ± 0.19	28.1 ± 0.46	96.37 ± 3	266.41 ± 19	911.16 ± 110
302.15 K	11.09 ± 0.15	21.57 ± 0.34	65.92 ± 1.3	163.27 ± 8.5	485.33 ± 46
308.15 K	9.21 ± 0.13	16.8 ± 0.26	46.14 ± 0.84	106.33 ± 3.8	278.53 ± 20
314.15 K	7.64 ± 0.1	13.17 ± 0.2	33.91 ± 0.58	71.05 ± 1.6	173.09 ± 9.4
320.15 K	6.58 ± 0.09	10.98 ± 0.16	26.01 ± 0.43	51.66 ± 0.86	120.77 ± 4.9
325.15 K	6.01 ± 0.08	9.33 ± 0.14	20.65 ± 0.34	39.36 ± 0.74	82.86 ± 2.4
330.15 K	5.19 ± 0.07	7.98 ± 0.12	16.86 ± 0.27	30.2 ± 0.56	61.04 ± 1.2
335.15 K	4.57 ± 0.06	6.85 ± 0.1	14.03 ± 0.22	24.08 ± 0.43	46.15 ± 0.93
340.15 K	4.13 ± 0.06	6.04 ± 0.09	11.75 ± 0.19	19.47 ± 0.34	35.24 ± 0.7
345.15 K	3.68 ± 0.05	5.37 ± 0.08	9.97 ± 0.16	16.1 ± 0.28	27.32 ± 0.53
350.15 K	3.29 ± 0.05	4.7 ± 0.06	8.55 ± 0.13	13.3 ± 0.21	22.24 ± 0.39

Cc1c(C)c2c(c(C)c1O)CCC(C)(CCCC(C)CCCC(C)CCCC(C)C)O2 (stereo not drawn) [dl-α-tocopherol] + CCCCCc1ccc(C2CCC(CCC)CC2)cc1
[2], x1 = 1
Details	viscosity [mPa·s]
278.15 K	37128 ± 10000
284.15 K	15242 ± 3600
290.15 K	6380 ± 1300
296.15 K	3017.5 ± 510
302.15 K	1531 ± 220
308.15 K	814.81 ± 94
314.15 K	454.58 ± 42
320.15 K	283.56 ± 21
325.15 K	187.51 ± 11
330.15 K	129.2 ± 5.7
335.15 K	92.65 ± 3
340.15 K	67.32 ± 1.6
345.15 K	49.98 ± 1.1
350.15 K	37.4 ± 0.85

Cc1c(C)c2c(c(C)c1O)CCC(C)(CCCC(C)CCCC(C)CCCC(C)C)O2 (stereo not drawn) [dl-α-tocopherol] + Cc1cc(C)cc(C)c1
viscosity [mPa·s], [2]
Details	x1 = 0.2025	x1 = 0.4036	x1 = 0.5972	x1 = 0.7955	x1 = 1
278.15 K	6.85 ± 1.6	148.08 ± 15	1253.6 ± 170	5944.7 ± 1200	37128 ± 10000
284.15 K	5.55 ± 0.11	92.32 ± 3.1	658.51 ± 71	3037.6 ± 510	15242 ± 3600
290.15 K	4.6 ± 0.08	56.98 ± 1.3	357.26 ± 30	1533.2 ± 220	6380.1 ± 1300
296.15 K	3.88 ± 0.07	38 ± 0.82	210.82 ± 13	819.67 ± 95	3017.5 ± 510
302.15 K	3.24 ± 0.06	26.65 ± 0.55	130.99 ± 5.8	477.36 ± 45	1531 ± 220
308.15 K	2.94 ± 0.05	19.06 ± 0.38	83.96 ± 2.4	276.12 ± 20	814.81 ± 94
314.15 K	2.39 ± 0.04	14.43 ± 0.27	55.52 ± 1.1	173.98 ± 9.5	454.58 ± 42
320.15 K	2.14 ± 0.04	11.42 ± 0.21	40.57 ± 0.81	116 ± 4.6	283.56 ± 21
325.15 K	1.96 ± 0.04	9.28 ± 0.17	30.55 ± 0.62	82.01 ± 2.3	187.51 ± 11
330.15 K	1.83 ± 0.03	7.75 ± 0.14	23.73 ± 0.46	60.1 ± 1.2	129.2 ± 5.7
335.15 K	1.72 ± 0.03	6.56 ± 0.12	18.89 ± 0.36	45.63 ± 0.95	92.65 ± 3
340.15 K	1.65 ± 0.03	5.59 ± 0.1	15.33 ± 0.29	34.46 ± 0.72	67.32 ± 1.6
345.15 K	1.52 ± 0.03	4.81 ± 0.09	12.33 ± 0.23	26.47 ± 0.53	49.98 ± 1.1
350.15 K	1.37 ± 0.03	4.25 ± 0.08	10.5 ± 0.18	21.44 ± 0.4	37.4 ± 0.85
